Here are results for four molecules from paper PMC12675575, “A BRET biosensor for measuring uncompetitive engagement of PRMT5 complexes in cells” (Nature Communications, 2025).

Assay [1] concerns the target PRMT5. Set-up: method as in ref 5,6 (a number printed in a supplementary file, which may have a reference list of its own: not looked up in the article's list). As to conditions: single-cycle kinetic analysis; read-out: SPR (pM), Kd; cited from earlier work.
Assay [2] deals with NLuc-PRMT5 co-expressed with WDR77 (Homo sapiens, UniProt O14744). In words: Compound EC50 titrations against MTA, NanoBRET in HEK293 (NLuc-PRMT5 + WDR77), with global Gaddum/Schild or Morrison fits. As to conditions: for Schild slope: Global Gaddum/Schild EC50 shift fit, MTA titration; for Right-shift in binding/potency on addition of MTA: HEK293, 300 µM exogenous MTA; for EC50 fold change (EC50 at 300 μM MTA versus vehicle): negative = enhanced potency under high MTA; for Hill slope (Global/Schild fit): constant across [MTA], constrained to 1 for PF06939999 and GSK3326595.
Sequence of NLuc-PRMT5 co-expressed with WDR77 (O14744 whole entry): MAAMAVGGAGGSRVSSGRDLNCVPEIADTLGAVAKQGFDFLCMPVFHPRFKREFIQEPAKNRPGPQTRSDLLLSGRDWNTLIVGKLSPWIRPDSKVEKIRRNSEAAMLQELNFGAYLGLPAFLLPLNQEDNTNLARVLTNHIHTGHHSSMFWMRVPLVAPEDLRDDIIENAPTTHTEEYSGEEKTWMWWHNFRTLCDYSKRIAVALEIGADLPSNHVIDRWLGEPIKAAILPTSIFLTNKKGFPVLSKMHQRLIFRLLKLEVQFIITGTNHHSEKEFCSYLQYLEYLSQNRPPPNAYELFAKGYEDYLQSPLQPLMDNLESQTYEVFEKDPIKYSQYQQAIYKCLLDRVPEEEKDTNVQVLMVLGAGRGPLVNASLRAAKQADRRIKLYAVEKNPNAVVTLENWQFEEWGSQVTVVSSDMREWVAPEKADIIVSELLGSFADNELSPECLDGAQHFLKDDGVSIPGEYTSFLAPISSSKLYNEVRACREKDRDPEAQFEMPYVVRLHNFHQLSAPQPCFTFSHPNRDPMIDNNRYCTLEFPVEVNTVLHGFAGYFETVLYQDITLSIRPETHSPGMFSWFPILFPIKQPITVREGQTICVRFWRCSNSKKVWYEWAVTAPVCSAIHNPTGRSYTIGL
Sequence of NLuc-PRMT5 co-expressed with WDR77 (Q9BQA1 whole entry partner): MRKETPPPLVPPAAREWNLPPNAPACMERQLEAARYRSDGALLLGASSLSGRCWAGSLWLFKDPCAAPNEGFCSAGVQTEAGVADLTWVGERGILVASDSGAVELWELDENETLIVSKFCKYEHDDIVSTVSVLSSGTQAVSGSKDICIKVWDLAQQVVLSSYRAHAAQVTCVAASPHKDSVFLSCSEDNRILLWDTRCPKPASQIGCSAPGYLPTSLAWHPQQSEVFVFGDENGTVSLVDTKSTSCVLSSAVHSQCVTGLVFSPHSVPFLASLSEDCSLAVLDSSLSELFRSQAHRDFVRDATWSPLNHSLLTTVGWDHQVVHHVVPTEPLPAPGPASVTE
Protocol: MTA (Sigma) was prepared at 100× in 100% DMSO and diluted to 10× in Opti-MEM. Inhibitors were run as 11 pt, 3-fold dilution curves and MTA as a seven point, 3-fold dilution curve starting at 100 μM. Cells were incubated for 2 h at 37 °C and 5% CO2 prior to BRET measurements. Data was normalized using Eq. (2) where BRETMIN = saturating compound + maximum [MTA], and BRETMAX = BRET signal under vehicle conditions. Curves were fit using Eq. (3), and EC50 values were plotted against MTA concentration to determine the linear range of MTA detection.

Another assay deals with SDMA levels in A427. The arrangement: method as in ref 5,6 (a number printed in a supplementary file, which may have a reference list of its own: not looked up in the article's list). As to conditions: read-out: In-Cell Western (nM), IC50; cited from earlier work.
The target in assay [3] is NanoLuc-PRMT5 co-expressed with WDR77 (Homo sapiens, UniProt O14744). The assay can be described thus: Live-cell NanoBRET target engagement with BRET probe CBH-002 in HEK293 cells expressing NanoLuc-PRMT5 and unlabeled WDR77. The assay is classed as cell-based. The conditions noted are these: for EC50: HEK293, competitive displacement of CBH-002, 2 h, n=3. The arrangement: host or cells: HEK293. How it is done:
HEK293 cells (ATCC) were cultured in DMEM (Thermo Fisher) + 10% (v/v) FBS (Seredigm), and HCT116 cells (Horizon Discovery, #PAR-034 and #R02-033) were cultured in McCoy’s 5A (Thermo Fisher) + 10% FBS, with incubation in a humidified, 37 °C/5% CO2 incubator. Cells were split 1–3 days prior to performing experiments and used at roughly 80% confluency. […] Cells were transfected according to the manufacturer’s protocol using FuGENE HD (Promega). NanoLuc fusion DNA was diluted into Transfection Carrier DNA (Promega) in Opti-MEM at a ratio of 1:9 (mass/mass), and FuGENE HD was added at a ratio of 1:3 (μg DNA:μL lipid). […] Formed complexes were combined with cells resuspended to a density of 2 × 10^5 cells/mL in Opti-MEM + 1% FBS at a ratio of 1:20 (vol:vol). […] Cells were seeded at a density of 2 × 10^5 cells/mL in Opti-MEM + 1% FBS in 100 μL (96-well). The BRET probe CBH-002 was prepared first as a 100× stock in 100% DMSO (Sigma) and then diluted to a 20× stock in NanoBRET Tracer Dilution buffer (Promega). Test compounds were prepared as 1000× stocks in 100% DMSO and diluted to 10× stocks in Opti-MEM to prepare working stocks. […] NanoBRET Complete 3x Substrate was prepared by combining Nano-Glo Substrate and Extracellular NanoLuc Inhibitor in Opti-MEM, according to the manufacturer’s protocol (Promega).
BRET ratio values were calculated by dividing the acceptor by the donor signal, and raw BRET was converted to milli-BRET (mBRET) units (mBu) by multiplying by 1000.
EC50 values were obtained by fitting the BRET probe and compound affinity curves to a sigmoidal four-parameter fit model in Graphpad Prism:1 Y=Ymin+Ymax−Ymin/1+10^LogEC50−Xh where h is the Hill Slope.
When normalized BRET was used, mBRET values were normalized using2 NormalizedBRET%=(Y−BRETmin)/BRETmax−BRETmin where y = mBRET in the presence of test compound and BRET probe, BRETmin = mBRET at the highest concentration (saturating) of test compound and BRET probe, and BRETmax = mBRET in the presence of vehicle (DMSO) and BRET probe.
Normalized concentration-response curves showing full competition were fit using a 2-parameter model:3 Y=100/1+10^LogEC50−Xh
In situations where only partial competition was observed, the normalized concentration-response curves were fit using Eq. 1 and where Ymin was constrained to >0.

In another assay the target is PRMT5:MEP50 complex. Set-up: method as in ref 4 (a number printed in a supplementary file, which may have a reference list of its own: not looked up in the article's list). As to conditions: read-out: SPR (pM), Kd; cited from earlier work.
Assay [4] has as its system SmBB' dimethylation in MCF7 cells. Set-up: method as in ref 4 (a number printed in a supplementary file, which may have a reference list of its own: not looked up in the article's list). The conditions noted are these: read-out: In-Cell Western (nM), EC50; cited from earlier work.
Assay [5] concerns PRMT5. As to conditions: 3H-SAM to peptide substrate; read-out: Biochemical (nM), IC50; cited from earlier work.
Assay [6] concerns SDMA in MTAP WT cells. Set-up: method as in ref 9 (a number printed in a supplementary file, which may have a reference list of its own: not looked up in the article's list). As to conditions: read-out: In-Cell Western (nM), SDMA EC50; cited from earlier work.
Another assay relates to MTAP del cell lines. The arrangement: method as in ref 7,8 (a number printed in a supplementary file, which may have a reference list of its own: not looked up in the article's list). The conditions noted are these: 10 day viability, read-out: Proliferation (nM), IC50; cited from earlier work.
In another assay the test system is PRMT5–MEP50. The conditions noted are these: cited from earlier work; for IC50: read-out: Biochemical (nM), IC50.
Another assay deals with MTAP WT cell lines. Set-up: method as in ref 7,8 (a number printed in a supplementary file, which may have a reference list of its own: not looked up in the article's list). The conditions noted are these: 10 day viability, read-out: Proliferation (nM), IC50; cited from earlier work.
The subject of assay [7] is SDMA in MTAP WT cells. Set-up: method as in ref 7,8 (a number printed in a supplementary file, which may have a reference list of its own: not looked up in the article's list). The conditions noted are these: read-out: In-Cell Western (nM), SDMA IC50; cited from earlier work.
The next assay concerns SDMA in MTAP del cells. Set-up: method as in ref 7,8 (a number printed in a supplementary file, which may have a reference list of its own: not looked up in the article's list). The conditions noted are these: read-out: In-Cell Western (nM), SDMA IC50; cited from earlier work.
In the next assay the target is PRMT5/MEP50. Set-up: method as in ref 7,8 (a number printed in a supplementary file, which may have a reference list of its own: not looked up in the article's list). The conditions noted are these: 20 μM SAM preincubation; read-out: SPR; cited from earlier work.

Where “and” joins values, the source holds several entries; their conditions need not be identical. Equal values may be shown once. Read-outs that look alike come from different tables or passages of the source.

Sequence of NanoLuc-PRMT5 co-expressed with WDR77 (O14744 whole entry, the tested form may be a part): as the sequence (O14744 whole entry) above
Sequence of NanoLuc-PRMT5 co-expressed with WDR77 (Q9BQA1 whole entry partner, the tested form may be a part): as the sequence (Q9BQA1 whole entry partner) above

Turning to `Nc1ncnc2c1ccn2C1OC(C(O)c2ccccc2)C(O)C1O` (centres unmarked) [PF-06939999], at PRMT5 [1], the Kd is 5.8 pM. For the same molecule, the Schild slope in assay [2] (HEK293) is listed as 1.15 (0.88 - 1.51). Further, in [2] (Global/Schild fit, HEK293), the “A2 (concentration of MTA needed to shift the dose response curve by a factor of 2)” value is listed as 172 (137 – 211) M. Moreover, the “Right-shift in binding/potency on addition of MTA” value in assay [2] amounted to 3 fold. In assay [2] (HEK293), the “EC50 fold change (EC50 at 300 μM MTA versus vehicle)” value is 3 and 2.8. Besides, the Hill slope in assay [2] ([MTA] 0 μM, HEK293) worked out at 0.97; in [2] ([MTA] 11.11 μM, HEK293), 0.99; in assay [2] ([MTA] 100 μM, HEK293) it was 0.79; in assay [2] ([MTA] 300 μM, HEK293) it was 0.76. Further, the “Hill slope (Global/Schild fit)” value in assay [2] is listed as 1. Besides, the IC50 in the assay on SDMA levels in A427 is 1.1 nM. Further, the remaining activity at […] stood at 0.95% in assay [3] (HEK293, log([compound]), uM -0.48, vehicle = 100, read-out: Normalized BRET, Bio rep 1-3) and 11.6% in [3] (HEK293, log([compound]), uM -1.91, vehicle = 100, read-out: Normalized BRET, Bio rep 1-3). Moreover, the remaining activity at 0.1122 µM in [3] (HEK293, log([compound]), uM -0.95, vehicle = 100, read-out: Normalized BRET, Bio rep 1-3) stood at 2.4%. Moreover, the remaining activity at 0.03715 µM in [3] (HEK293, log([compound]), uM -1.43, vehicle = 100, read-out: Normalized BRET, Bio rep 1-3) is 5.9%. The remaining activity at 0.004074 µM in assay [3] (HEK293, log([compound]), uM -2.39, vehicle = 100, read-out: Normalized BRET, Bio rep 1-3) was 22.9%. Moreover, in assay [3] (HEK293, log([compound]), uM -2.86, vehicle = 100, read-out: Normalized BRET, Bio rep 1-3), the remaining activity at 0.00138 µM came out at 51.1%. Further, the remaining activity at 0.0004571 µM in [3] (HEK293, log([compound]), uM -3.34, vehicle = 100, read-out: Normalized BRET, Bio rep 1-3) amounted to 72.7%. Besides, the remaining activity at 0.0001514 µM in assay [3] (HEK293, log([compound]), uM -3.82, vehicle = 100, read-out: Normalized BRET, Bio rep 1-3) stood at 89%. In addition, the remaining activity at 51.29 pM in assay [3] (HEK293, log([compound]), uM -4.29, vehicle = 100, read-out: Normalized BRET, Bio rep 1-3) stood at 98.4%. The remaining activity at 16.98 pM in assay [3] (HEK293, log([compound]), uM -4.77, vehicle = 100, read-out: Normalized BRET, Bio rep 1-3) came to 102%. Also, in assay [3] (read-out: NanoBRET EC50 (95% CI)), the concentration giving a half-maximal response (EC50) was found to be 1.7 nM.
`Nc1ncnc2c1ccn2[C@@H]1O[C@H]([C@H](O)c2ccccc2)[C@@H](O)[C@H]1O` [LLY-283]: the Kd on PRMT5:MEP50 complex is 6000 pM. Besides, the EC50 in assay [2] (EC50, [MTA] 0 μM, HEK293, 30 nM CBH-002) is 348 nM; in [2] (EC50, nM (MTA = 0), Global/Schild fit, HEK293), 365 nM; in assay [4] it was 25 nM; in assay [3] (NanoBRET EC50 (95% CI, nM)) it was 467 nM. In assay [2] (HEK293), the Schild slope is on record as 1.1 (0.93 - 1.31). In assay [2] (Global/Schild fit, HEK293), the “A2 (concentration of MTA needed to shift the dose response curve by a factor of 2)” value is reported as 61 (46-79) M. Further, the “Right-shift in binding/potency on addition of MTA” value in assay [2] is 6 fold. Further, in assay [2] (HEK293), the “EC50 fold change (EC50 at 300 μM MTA versus vehicle)” value was 6 and 6.1. For the same molecule, the Hill slope in [2] ([MTA] 0 μM, HEK293) is recorded as 0.62; in [2] ([MTA] 11.11 μM, HEK293), 0.55; in [2] ([MTA] 100 μM, HEK293), 0.62; in [2] ([MTA] 300 μM, HEK293) it was 0.64. Further, the “Hill slope (Global/Schild fit)” value in [2] is reported as 0.55 (0.51 - 0.59). The remaining activity at […] in [3] (HEK293, log([compound]), uM 0.0458, vehicle = 100, read-out: Normalized BRET, Bio rep 1-3) worked out at 34%; in assay [3] (HEK293, log([compound]), uM 0.52, vehicle = 100, read-out: Normalized BRET, Bio rep 1-3) it was 24.1%; in [3] (HEK293, log([compound]), uM -0.91, vehicle = 100, read-out: Normalized BRET, Bio rep 1-3), 66.1%. Moreover, the remaining activity at 0.3715 µM in [3] (HEK293, log([compound]), uM -0.43, vehicle = 100, read-out: Normalized BRET, Bio rep 1-3) was found to be 53.7%. Besides, in [3] (HEK293, log([compound]), uM -1.39, vehicle = 100, read-out: Normalized BRET, Bio rep 1-3), the remaining activity at 0.04074 µM is 81.4%. The remaining activity at 0.0138 µM in assay [3] (HEK293, log([compound]), uM -1.86, vehicle = 100, read-out: Normalized BRET, Bio rep 1-3) amounted to 91.4%. Also, the remaining activity at 0.004571 µM in assay [3] (HEK293, log([compound]), uM -2.34, vehicle = 100, read-out: Normalized BRET, Bio rep 1-3) came out at 97.7%. Further, in assay [3] (HEK293, log([compound]), uM -2.82, vehicle = 100, read-out: Normalized BRET, Bio rep 1-3), the remaining activity at 0.001514 µM is 102%. In addition, in assay [3] (HEK293, log([compound]), uM -3.29, vehicle = 100, read-out: Normalized BRET, Bio rep 1-3), the remaining activity at 0.0005129 µM turned out to be 107%. Also, the remaining activity at 0.0001698 µM in assay [3] (HEK293, log([compound]), uM -3.77, vehicle = 100, read-out: Normalized BRET, Bio rep 1-3) stood at 102%. In the assay with PRMT5 [5], the IC50 is 22 nM.
On to `Cc1cc(NC(=O)C(=O)N2CC(C)CCC2c2ccc3scnc3c2)cnc1N` (centres unmarked) [TNG908], for which the EC50 in the assay on SDMA in MTAP WT cells [6] is 135 nM.
Turning to `Cn1ncc(-c2ccc3c(=O)[nH]nc(CN)c3c2)c1-c1c(F)c(Cl)cc(OC2CC2)c1C#N` [MRTX1719], the IC50 is 12 nM in the assay on MTAP del cell lines; 3.6 nM with PRMT5–MEP50 (MTA); 20.4 nM in the assay on PRMT5–MEP50 (SAM); 890 nM in the assay with MTAP WT cell lines; 653 nM in the assay on SDMA in MTAP WT cells [7]; 8 nM in the assay with SDMA in MTAP del cells. In the assay with PRMT5–MEP50, the “Enhancement of biochemical IC50 in the presence of MTA” value is recorded as 5 fold. For the same molecule, the Kd on PRMT5/MEP50 was 0.0094 nM.
